Test results taken from patent US7182963B2, “Cosmetic and dermopharmaceutical compositions for skin prone to acne” (priority 2001, dated 2007).
Each block holds one compound with its values, some of them ahead of it.

Legend:
[1] = system: Acinetobacterium calcoaceticus; assay: Antibacterial effect, agar incorporation, strain E; format: cell-based; design: key to bacterial growth, strain E: ‘+’ = bacterial growth; ‘−’ = no bacterial growth; settings: for antimicrobial activity: A. calcoaceticus; for bacterial growth, strain E: 24 h (same at 48 h), equivalent to 5% premix
Procedure: (§1) Test Principle and Implementation: 1 mL of the premix in example No. 1 or its constituents at concentrations equivalent to 5% of the premix were incorporated in molten agar medium (BioMérieux) plated in a Petri dish. […] The plates were then incubated at 37° C. for 24 and 48 hours and inspected visually. Five strains, Corynebacterium minutissimum, Propionibacterium acnes, Staphylococcus aureus, Staphylococcus hominis and Acinetobacterium calcoaceticus were studied.

[2] = system: interleukin 6 (IL-6) on normal human keratinocytes (HK); assay: Anti-inflammatory effect: IL-6 (ELISA) in normal human keratinocytes after UV-B irradiation; format: cell-based; settings: for HK % change (IL-6 vs. tests without UV exposure): UV-B 50 mJ.cm^−2, 24 hours
Procedure: (§2) Principle and test implementation: it is possible to estimate a degree of inflammation by determining the quantity of mediators such as prostaglandins, leukotrienes or interleukins. In this example, we selected assay of interleukin 6 (IL-6) on normal human fibroblasts (HF) and keratinocytes (HK) in culture following exposure to UV-B irradiation. Broadly speaking, the cells were cultured in a conventional culture medium (DMEMc+10% FCS) for periods of 24 hours for HF and 1 week for HK. After elimination of the buffer and 2 successive washings with phosphate buffer solution, the cells were exposed to UV-B irradiation at a standardized energy level of 50 mJ.cm^−2. The buffer was then rapidly eliminated and replaced by the same culture medium as that used at the start of the experiment, but containing the test extracts at the prerequisite concentrations or DMSO for the control series. After 24 hours, the culture medium was harvested and IL-6 concentration determined using a standard ELISA method. An additional series was conducted using the same protocol but without UV-B irradiation in order to determine the baseline level and control the stability of the study system. All the assays were conducted in triplicate.

[3] = system: normal human keratinocytes (HK); assay: Antiproliferative effect on keratinocytes (DNA quantity, Hoechst 33258); format: cell-based; settings: for % inhibition (quantity of DNA, number of cells): 1 week culture
From the text: Test principle and implementation: since the quantity of DNA is constant for each cell, the determination of the overall quantity of DNA is equivalent to measuring the number of cells used for the determination. This principle enables routine use of more refined but very cumbersome methodologies to be avoided. Various methods have been developed on the basis of this protocol, of which, in particular, that used herein. When bound to DNA with a constant and known stereochemistry, the fluorophore, Hoechst 33258, presents, first, increased fluorescence, but also an emission spectrum shift from 492 to 458 nm. By means of comparison with pre-established sets of standards, the concomitant monitoring of the above 2 parameters enables quantification of the quantity of DNA present in the cell samples studied. Broadly speaking, normal human keratinocytes (HK) are cultured in a classic culture medium (DMEMc+10% FCS) for 1 week, in the absence of the test product (control series in order to determine the baseline cell proliferation of the system studied) or in the presence of the test products alone or in combination. Fluorophore Hoechst 33258 was added at the end of the protocol before withdrawing cell aliquots for assay. The assays were conducted in triplicate as 3 mutually independent assays.

[4] = system: 5α-reductase; assay: Inhibition of 5α-reductase, enzymatic assay (NADPH absorbance at 340 nm), in vitro; format: biochemical; settings: for % inhibition: mean±SEM, 5 assays
Procedure: Principle and implementation of the test (adapted from Zy and Zu, 1998):
Testosterone is irreversibly metabolized by 5α-reductase to […] (5-DHT) in the presence of the cofactor NADPH. The reaction is monitored, at 37° C., by determining, using a spectrophotometer, the reduction in the absorbance of the reaction medium at 340 nm, due to the conversion of NADPH to NADP.
The test thus consists in mixing testosterone, NADPH and the test product or its vehicle alone (control reaction). After 3 minutes to allow the system to equilibrate, the baseline absorbance of the system is determined. Then the reaction is triggered by addition of the enzyme, 5α-reductase. After 10 minutes, a second determination of the absorbance, final absorbance, is conducted. The difference between the two measurements reflects the quantity of NADPH consumed. That quantity is proportional to the quantity of testosterone converted to 5-DHT.

[5] = system: Staphylococcus hominis; assay: Antibacterial effect, agar incorporation, strain B; format: cell-based; design: key to bacterial growth, strain B: ‘+’ = bacterial growth; ‘−’ = no bacterial growth; settings: for bacterial growth, strain B: 24 h (same at 48 h), equivalent to 5% premix
Procedure: as §1

[6] = system: 5α-reductase; assay: Inhibition of 5α-reductase, HPLC determination of testosterone, in vitro; format: biochemical; settings: for % inhibition: mean±SEM, 5 assays
Procedure: Principle and implementation of the test: the aim of this test was to confirm the previous result but using an HPLC analysis method. Unlike 5-DHT, testosterone absorbs light at the wavelength used (245 nm). The decrease in testosterone peak area (which was characterized under our operating conditions by a retention time of 26 minutes) reflects the reduction of the concentration of the compound in the study medium and thus reflects 5α-reductase activity.
The same type of protocol as in the previous example was used, but instead of determining the absorbances, the reaction media were analyzed by HPLC.

[7] = system: interleukin 6 (IL-6) on normal human fibroblasts (HF); assay: Anti-inflammatory effect: IL-6 (ELISA) in normal human fibroblasts after UV-B irradiation; format: cell-based; settings: for HF % change (IL-6 vs. tests without UV exposure): UV-B 50 mJ.cm^−2, 24 hours
Procedure: as §2

[8] = system: P. acnes; assay: Antibacterial effect, agar incorporation, strain D; format: cell-based, Propionibacterium acnes; design: key to bacterial growth, strain D: ‘+’ = bacterial growth; ‘−’ = no bacterial growth; settings: for bacterial growth, strain D: 24 h (same at 48 h), equivalent to 5% premix
Procedure: as §1

[9] = system: Corynebacterium minutissimum; assay: Antibacterial effect, agar incorporation, strain A; format: cell-based; design: key: ‘+’ = bacterial growth; ‘−’ = no bacterial growth; settings: 24 h (same at 48 h), equivalent to 5% premix
Procedure: as §1

[10] = system: Staphylococcus aureus; assay: Antibacterial effect, agar incorporation, strain C; format: cell-based; design: key: ‘+’ = bacterial growth; ‘−’ = no bacterial growth; settings: 24 h (same at 48 h), equivalent to 5% premix
Procedure: as §1

[11] = [c] 0.01%, listed as nordihydroguaiaretic acid

activity in the test [4]: no activity | % inhibition ([4]; [c] 0.01%): 2.1 ± 1.6% | % inhibition ([4]; [c] 0.04%): 3.7 ± 2.9% | % inhibition ([4]; [c] 0.1%): 3.0 ± 1.9% | activity in the test [6]: no activity | % inhibition ([6]; [c] 0.01%): 1.2 ± 0.4% | % inhibition ([6]; [c] 0.04%): 1.0 ± 0.9% | % inhibition ([6]; [c] 0.1%): 0.9 ± 0.7%
Structure (SMILES): CC(Cc1ccc(O)c(O)c1)C(C)Cc1ccc(O)c(O)c1 (stereo not drawn) [NDGA, nordihydroguaiaretic acid]
antimicrobial activity [1]: selective antimicrobial activity | inhibition vs. irradiated control (HK) ([2]; 0.01%): 14% | HK % change (IL-6 vs. tests without UV exposure) ([2]; [c] 0.01%): +388 ± 10% | HK % change (IL-6 vs. tests without UV exposure) [2, 11]: +388% | HK % change (IL-6 vs. tests without UV exposure) ([2]; [c] 0.04%): +201 ± 10% | HK % change (IL-6 vs. tests without UV exposure) ([2]; [c] 0.1%): +91 ± 14% | % inhibition (quantity of DNA, number of cells) ([3]; [c] 0.04%): 22.3 ± 1.9% | % inhibition (quantity of DNA, number of cells) ([3]; [c] 0.1%): 29.9 ± 1.7% | antimicrobial activity ([5]; S. hominis): selective antimicrobial activity | inhibition vs. irradiated control (HF) ([7]; 0.01%): 19% | HF % change (IL-6 vs. tests without UV exposure) ([7]; [c] 0.01%): +356 ± 18% | HF % change (IL-6 vs. tests without UV exposure) [7, 11]: +356% | HF % change (IL-6 vs. tests without UV exposure) ([7]; [c] 0.04%): +155 ± 9% | HF % change (IL-6 vs. tests without UV exposure) ([7]; [c] 0.1%): +87 ± 7%

% inhibition ([4]; [c] 0.01%): 16.7 ± 1.1% | % inhibition ([4]; [c] 0.03%): 31.7 ± 2.9% | % inhibition ([4]; [c] 0.1%): 56.3 ± 2.6% | % inhibition ([4]; [c] 0.1%, listed as oleanolic acid): 56% | % inhibition ([6]; [c] 0.01%): 10.9 ± 1.4% | % inhibition ([6]; [c] 0.03%): 25.6 ± 2.0% | % inhibition ([6]; [c] 0.1%): 48% | % inhibition ([6]; [c] 0.1%, listed as Oleanolic acid (obtained from olive tree leaves)): 47.7 ± 3.8%
Structure (SMILES): CC1(C)CC[C@]2(C(=O)O)CC[C@]3(C)C(=CC[C@@H]4[C@@]5(C)CC[C@H](O)C(C)(C)[C@@H]5CC[C@]43C)[C@@H]2C1 [Oleanolic acid, oleanolic acid]
antimicrobial activity [1]: selective antimicrobial activity | activity in the test, HK [2]: devoid of activity | HK % change (IL-6 vs. tests without UV exposure) ([2]; [c] 0.01%): +461 ± 16% | HK % change (IL-6 vs. tests without UV exposure) ([2]; [c] 0.03%): +444 ± 14% | HK % change (IL-6 vs. tests without UV exposure) ([2]; [c] 0.1%): +450 ± 14% | activity in the test [3]: devoid of activity | % inhibition (quantity of DNA, number of cells) ([3]; [c] 0.01%): 0.9 ± 1.0% | % inhibition (quantity of DNA, number of cells) ([3]; [c] 0.03%): 1.1 ± 1.6% | % inhibition (quantity of DNA, number of cells) ([3]; [c] 0.1%): 0.7 ± 0.7% | activity in the test, HF [7]: devoid of activity | HF % change (IL-6 vs. tests without UV exposure) ([7]; [c] 0.01%): +455 ± 14% | HF % change (IL-6 vs. tests without UV exposure) ([7]; [c] 0.03%): +437 ± 12% | HF % change (IL-6 vs. tests without UV exposure) ([7]; [c] 0.1%): +441 ± 18% | antimicrobial activity ([8]; P. acnes): selective antimicrobial activity

Structure (SMILES): Oc1cc(Cl)ccc1Oc1ccc(Cl)cc1Cl [Trichlosan]
bacterial growth, strain E ([1]; 10^4 bacteria/mL): − | bacterial growth, strain E ([1]; 10^5 bacteria/mL): − | bacterial growth, strain A ([9]; 10^4 bacteria/mL): − | bacterial growth, strain A ([9]; 10^5 bacteria/mL): − | bacterial growth, strain B ([5]; 10^4 bacteria/mL): − | bacterial growth, strain B ([5]; 10^5 bacteria/mL): − | bacterial growth, strain D ([8]; 10^4 bacteria/mL): − | bacterial growth, strain D ([8]; 10^5 bacteria/mL): − | bacterial growth, strain C ([10]; 10^4 bacteria/mL): − | bacterial growth, strain C ([10]; 10^5 bacteria/mL): −
